Experiments:
ApoE*3-Leiden mice = test: mouse femoral artery cuff model of restenosis (neointima formation); format: in vivo; settings: cuff around the femoral artery for 14 days, cuffs loaded with 1% (w/w) thalidomide, p=0.005
Description: (§1) For the mouse study, ApoE*3-Leiden mice and TNF knockout mice were used to determine the impact of TNF-alpha on restenosis development after cuff placement around the femoral artery for 14 days. In another ApoE*3-Leiden mice group the cuffs were loaded with 1% (w/w) thalidomide, a TNF biosynthesis inhibitor.

TNF protein = test: vascular levels of TNF protein after local thalidomide in the mouse cuff model; format: in vivo, mice; settings: thalidomide administered locally (cuff)
Procedure: as §1
Furthermore, the vascular levels of TNF protein were decreased when thalidomide was administered locally.

`O=C1CCC(N2C(=O)c3ccccc3C2=O)C(=O)N1` (centres unmarked) [thalidomide, 2-(2,6-dioxo-3-piperidinyl)-1H-isoindole-1,3(2H)-dione] was tested, and the neointima formation (ApoE*3-Leiden mice) was “significantly less neointima formation” and the “vascular levels of TNF protein” value (TNF protein) was “decreased”.
